The values below come from PubChem BioAssay (NCI).

Test systems include COLO 205 colon; HCT-15 colon; HT29 colon; OVCAR-4 ovarian; RPMI-8226 leukemia; SF-539 CNS; SK-MEL-28 melanoma; SK-MEL-5 melanoma; SNB-75 CNS; U251 CNS.
What all share (assay): NCI-60 cell line screen, 48 h

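Values below derive from 48-hour exposures of cells grown in 96-well plates, with endpoints linearly interpolated between the two concentrations bracketing the appropriate inhibition level. The concentration for 50% growth inhibition is given as GI50. TGI: total growth inhibition.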 Bounds are passed on as bounds.

In the case of `CC(NCCN(C)C)C1CCC2C3CCc4cc(O)ccc4C3CCC12C` (stereo not given), the TGI came out at 3.54 µM in the assay with COLO 205 colon; 9.49 µM in the assay with HCT-15 colon; 8.45 µM in the assay with HT29 colon; 9.55 µM in the assay with OVCAR-4 ovarian; 7.35 µM in the assay with RPMI-8226 leukemia; 9.52 µM with SF-539 CNS. Further, the TGI in the assay with SK-MEL-28 melanoma amounted to 5.29 µM; with SK-MEL-5 melanoma it was 3.29 µM; in the assay with SNB-75 CNS, 10.2 µM; in the assay with U251 CNS, 4.35 µM.
For `COc1ccc2c(=O)c(-c3cc(OC)c(OC)cc3OC)coc2c1`, the TGI is 42.6 µM in the assay with COLO 205 colon; above 100 µM in the assay on HCT-15 colon; above 38.3 µM in the assay on HT29 colon; above 100 µM in the assay with OVCAR-4 ovarian; above 40.3 µM in the assay on RPMI-8226 leukemia; 43.1 µM with SF-539 CNS. Moreover, the TGI was above 100 µM with SK-MEL-28 melanoma, above 100 µM in the assay on SK-MEL-5 melanoma, 8.93 µM in the assay with SNB-75 CNS and above 38.6 µM in the assay on U251 CNS.
`N#CC1=C(N)NC(=O)C(C#N)C12Nc1ccccc1S2` (stereo not given): the GI50 was 89.9 µM with COLO 205 colon; above 100 µM in the assay on HCT-15 colon; above 100 µM with HT29 colon; above 100 µM with OVCAR-4 ovarian; 43.2 µM in the assay on RPMI-8226 leukemia; above 100 µM with SF-539 CNS. The GI50 with SK-MEL-28 melanoma, in the assay with SK-MEL-5 melanoma, with SNB-75 CNS and in the assay with U251 CNS was above 100 µM each time. For the same compound, the TGI with COLO 205 colon, with HCT-15 colon, in the assay with HT29 colon, with OVCAR-4 ovarian, with RPMI-8226 leukemia and in the assay on SF-539 CNS was above 100 µM in each case. The TGI in the assay with SK-MEL-28 melanoma, in the assay with SK-MEL-5 melanoma, in the assay with SNB-75 CNS and in the assay with U251 CNS was above 100 µM throughout.
With `CC(C)(C)OC(=O)N(CCCCN(CCCn1c2c(c3ccccc3c1=O)C(=O)c1ccccc1-2)C(=O)OC(C)(C)C)CCCn1c2c(c3ccccc3c1=O)C(=O)c1ccccc1-2`, the GI50 is above 100 µM with COLO 205 colon; 23.4 µM with HCT-15 colon; 54.6 µM with HT29 colon; above 100 µM in the assay with OVCAR-4 ovarian; 17.9 µM with RPMI-8226 leukemia; 8.79 µM in the assay with SF-539 CNS. The GI50 with SK-MEL-28 melanoma was above 100 µM; with SK-MEL-5 melanoma it was 48.5 µM; in the assay with SNB-75 CNS, above 100 µM; with U251 CNS, 27.2 µM. For the same compound, the TGI in the assay with COLO 205 colon is above 100 µM; in the assay with HCT-15 colon, above 100 µM; in the assay with HT29 colon, above 100 µM; in the assay with OVCAR-4 ovarian, above 100 µM; in the assay on RPMI-8226 leukemia, 69.1 µM; in the assay on SF-539 CNS it was 33.1 µM. Also, the TGI in the assay with SK-MEL-28 melanoma, with SK-MEL-5 melanoma, with SNB-75 CNS and in the assay with U251 CNS was above 100 µM each time.
Turning to `O=C(O)CCC(O)=C1S(=O)(=O)OCCOS1(=O)=O`, the TGI with COLO 205 colon, in the assay on HCT-15 colon, in the assay with HT29 colon, in the assay with OVCAR-4 ovarian, in the assay on RPMI-8226 leukemia and in the assay with SF-539 CNS was above 100 µM each time. The TGI with SK-MEL-28 melanoma, in the assay on SK-MEL-5 melanoma, with SNB-75 CNS and in the assay with U251 CNS was above 100 µM in each case.
Turning to `CC(C)(C)OC(=O)NCCCCCCCCCn1c2c(c3ccccc3c1=O)C(=O)c1ccccc1-2`, the GI50 in the assay on COLO 205 colon was above 100 µM; in the assay with HCT-15 colon it was above 100 µM; in the assay with HT29 colon, above 100 µM; with OVCAR-4 ovarian it was above 100 µM; with RPMI-8226 leukemia, above 100 µM; in the assay on SF-539 CNS it was 18 µM. In addition, the GI50 in the assay on SK-MEL-28 melanoma was above 100 µM; in the assay on SK-MEL-5 melanoma, above 100 µM; with SNB-75 CNS it was 11.2 µM; in the assay with U251 CNS, 22 µM. Besides, the TGI in the assay with COLO 205 colon is above 100 µM; in the assay with HCT-15 colon, above 100 µM; with HT29 colon, above 100 µM; in the assay on OVCAR-4 ovarian it was above 100 µM; with RPMI-8226 leukemia, above 100 µM; in the assay with SF-539 CNS it was 52.8 µM. In addition, the TGI in the assay with SK-MEL-28 melanoma is above 100 µM; with SK-MEL-5 melanoma, above 100 µM; in the assay on SNB-75 CNS it was 36.8 µM; in the assay on U251 CNS it was above 100 µM.
In the case of `COc1ccc2nc3cc(Cl)ccc3c(Nc3ccccc3-c3ccccc3Nc3c4ccc(Cl)cc4nc4ccc(OC)cc34)c2c1`, the TGI was above 88 µM with COLO 205 colon; above 66.9 µM with HCT-15 colon; 55.7 µM in the assay on HT29 colon; 81.6 µM in the assay with OVCAR-4 ovarian; above 47.7 µM with RPMI-8226 leukemia; above 67.2 µM in the assay on SF-539 CNS. In addition, the TGI with SK-MEL-28 melanoma is above 86.6 µM; in the assay with SK-MEL-5 melanoma it was 30.7 µM; in the assay on SNB-75 CNS it was above 72 µM; in the assay with U251 CNS, above 93.5 µM.
Regarding `Nc1c(C(=O)c2cccc(-c3cccnc3)c2)cnn1-c1ccc(F)cc1`, the GI50 in the assay on COLO 205 colon was above 25 µM; in the assay with HCT-15 colon, above 25 µM; in the assay on HT29 colon, above 25 µM; with OVCAR-4 ovarian it was above 16.3 µM; in the assay with RPMI-8226 leukemia it was above 25 µM; in the assay on SF-539 CNS, above 25 µM. Also, the GI50 in the assay with SK-MEL-28 melanoma was above 25 µM; in the assay with SK-MEL-5 melanoma, above 25 µM; in the assay with SNB-75 CNS, above 12.6 µM; in the assay on U251 CNS, above 25 µM. In addition, the TGI with COLO 205 colon, with HCT-15 colon, in the assay on HT29 colon, in the assay with OVCAR-4 ovarian, with RPMI-8226 leukemia and in the assay with SF-539 CNS was above 25 µM in each case. The TGI in the assay on SK-MEL-28 melanoma, with SK-MEL-5 melanoma, in the assay with SNB-75 CNS and in the assay on U251 CNS was above 25 µM each time.
On to `CC1=CC(=O)NP(=O)(Oc2ccc(Cl)cc2)N1` (stereo not given), for which the TGI in the assay with COLO 205 colon, in the assay with HCT-15 colon, in the assay on HT29 colon, with OVCAR-4 ovarian, with RPMI-8226 leukemia and with SF-539 CNS was above 100 µM each time. For the same compound, the TGI in the assay on SK-MEL-28 melanoma, in the assay with SK-MEL-5 melanoma, in the assay with SNB-75 CNS and in the assay with U251 CNS was above 100 µM throughout.
On to `COc1ccc([N+](=O)[O-])c2c(NCCCN(C)C)c(C)c(C)nc12`, for which the TGI is above 100 µM in the assay on COLO 205 colon; above 100 µM with HCT-15 colon; above 100 µM in the assay with HT29 colon; 63.5 µM in the assay on OVCAR-4 ovarian; above 100 µM with RPMI-8226 leukemia; above 100 µM with SF-539 CNS. Further, the TGI in the assay on SK-MEL-28 melanoma, with SK-MEL-5 melanoma, with SNB-75 CNS and in the assay with U251 CNS was above 100 µM each time.
